The results in this text go back to patent publication US20100330128A1, “Method of improving immune function in mammals using lactobacillus strains with certain lipids” (priority 2005, published 2010).

For the experiment, the system named is lymphocytes separated from spleen and thymus. Put plainly: Lymphocyte proliferation assay (alamar blue). It is filed as cell-based, BALB/c mice. The settings on record: 72 hours after addition of stimulant, FIG. 2. As to the method:
Lymphocytes were prepared from the spleen and thymus of BALB/c mice and were incubated with supernatants derived from growing L. reuteri ATCC 55730 in the presence and absence of glycerol (50 mM). L. reuteri ATCC 55730 was selected as it is a known good producer of 3-HPA and thus follows the selection criteria of the invention. Control incubations were performed with glycerol alone, media alone and known lymphocyte proliferation stimulants.
Separation of spleen and thymus lymphocytes. BALB/c mice were sacrificed by cervical dislocation, and their thymus was separated, immersed in Hanks' balanced salt solution (HBSS) and torn piecemeal to obtain a single cell. The single cell was centrifuged through double layers in Histopaque-1083 (Sigma) to obtain lymphocytes. These cells were washed two times with IMDM, and living cells were counted according to tryphan blue exclusion technique and used in the experiment at an adjusted final concentration of 1×10^7/mL.
Preparation of bacterial lysates. L. reuteri and Listeria monocytogenes lysates were prepared as mentioned in the phagocytic assay.
Preparation of L. reuteri supernatants. L. reuteri supernatant was also prepared as mentioned in the phagocytic assay.
Lymphocyte proliferation assay. Lymphocyte proliferation assay was carried out using lymphocytes suspended in IMDM+10% horse serum at 4×10^6 per well. The lymphocytes were treated with varying concentrations of L. reuteri, L. monocytogenes cell lysate and L. reuteri supernatant along with a reference stimulant, of which concentrations and conditions were as follows:
In the results reported in Table 2, MRS and glycerol sol. controls were used by adjusting pH in broths which were not incubated with L. reuteri, and the following symbols used: ConA: concanavalin A, PWM: pokeweed mitogen, PHA: phytohemaaglutinin, LPS: liphopholysaccharide from Salmonella enterica serovar Typhimurium.
Stimulants including ConA were added into a well containing lymphocytes in accordance with each condition, 3 hours before alamar blue was added at 10% concentration. 72 hours after the addition of each stimulant, the level of lymphocyte proliferation was determined by the value of OD570 nm-OD600 nm.
The result of lymphocyte proliferation was represented as Stimulation Index (SI), which is (ODtreatment-ODmedia control)/ODcell control value. In the case of L. reuteri supernatant treatment group, however, values of J and K treatment groups, but not IMDM+10% horse serum, were used as OD media control value.
A general note: Alamar Blue is a resazurin reagent that responds to reducing activity.

For phytohemaaglutinin [PHA], the “lymphocyte proliferation (Stimulation Index)” value is given as “marked stimulation of lymphocyte proliferation”.
Next, pokeweed mitogen [PWM]: “marked stimulation of lymphocyte proliferation”; concanavalin A [ConA]: “marked stimulation of lymphocyte proliferation”.
“liphopholysaccharide from Salmonella enterica serovar Typhimurium [LPS]”: the “lymphocyte proliferation (Stimulation Index)” value is “marked stimulation of lymphocyte proliferation”.
